For assay [1], the system named is Motor activity (apomorphine hydrochloride). Kind of assay: Antiapomorphine effect, Experiment 1: motor activity (Automex) after apomorphine. The assay is classed as in vivo, male dd mice. Particulars: 30 mg/kg intraperitoneal, 30 min before 0.5 mg/kg s.c. apomorphine hydrochloride, activity during 30 minutes, control 566. On the procedure: (§1) Antiapomorphine effect was measured by the following methods.
Motor activity was measured with Automex (Columbus Instruments, U.S.A.) in two groups of 3 male dd mice. Thirty minutes after intraperitoneal administration of each test compound (30 mg/kg), 0.5 mg/kg of apomorphine hydrochloride was injected subcutaneously. Immediately after the apomorphine injection, the animals were placed in the transparent plastic cage (26×42×20 cm) and motor activity during 30 minutes was measured. Student's was calculated to indicate the level of significance of the change from control.

For assay [2] the test system is unchanged. Kind of assay: Antiapomorphine effect, Experiment 2: motor activity (Animex) after apomorphine, ED50. The assay is classed as in vivo, male dd mice. Particulars: Mus musculus, read-out: ED50 (dose which reduced the motor activity by 50% as compared with control). The procedure:
as §1
Motor activity was measured with Animex (Columbus Instruments, U.S.A.) in three groups of 5 male dd mice. Sixty minutes after oral administration of each test compound, 0.5 mg/kg of apomorphine hydrochloride was injected subcutaneously. The measurement of motor activity during 20 minutes started just after the apomorphine injection. ED50 was determined graphically as the dose which reduced the motor activity by 50% as compared with control.

Read-outs that look alike come from different tables or passages of the source.

For orientation: ED50 means the dose at which the effect has come halfway, by size or by number of responders. For `O=c1[nH]c2ccccc2n1C1CCN(CC2COC(c3ccc(F)cc3)C2)CC1` (stereo not shown) [B], the “Motor Activity” value in assay [1] worked out at 4. Moreover, in assay [2] (po), the ED50 is 2.8 mg/kg.

`O=c1[nH]c2cc(Cl)ccc2n1C1CCN(C[C@@H]2CO[C@H](c3ccc(F)cc3)C2)CC1` (relative stereo) [F]: the “Motor Activity” value in assay [1] was 5. For the same molecule, the ED50 in assay [2] (po) is 2.4 mg/kg.

As to `O=c1[nH]c2cc(Cl)ccc2n1C1CCN(CC2COC(c3ccc(F)cc3)C2)CC1` (stereo not shown) [E], the “Motor Activity” value in assay [1] came out at 23. The ED50 in assay [2] (po) amounted to 0.4 mg/kg.

As to `O=c1[nH]c2cc(Cl)ccc2n1C1CCN(CC2CCC(c3ccc(F)cc3)O2)CC1` (stereo not shown) [H], the “Motor Activity” value in assay [1] turned out to be 5. Further, the ED50 in assay [2] (po) worked out at 12 mg/kg.

`O=c1[nH]c2cc(Cl)ccc2n1C1CCN(C[C@H]2CO[C@H](c3ccc(F)cc3)C2)CC1` (relative stereo) [G]: the “Motor Activity” value in assay [1] was 8. In addition, the ED50 in assay [2] (po) was 0.9 mg/kg.

For `Fc1ccc(C2CC(CN3CCC(n4c(=S)[nH]c5ccccc54)CC3)CO2)cc1` (stereo not shown) [A], the “Motor Activity” value in assay [1] is listed as 1. Further, in assay [2] (po), the ED50 was found to be 3.2 mg/kg.

On to `O=C1CCN(C2CCN(CC3COC(c4ccc(F)cc4)C3)CC2)C(=O)N1c1ccccc1` (stereo not shown) [D], for which the “Motor Activity” value in assay [1] turned out to be 28. Also, the 50% effective dose (ED50) in assay [2] (Experiment 2, oral, 60 min before 0.5 mg/kg s.c. apomorphine hydrochloride, activity during 20 minutes) was determined as 25 mg/kg.

`O=C1NCN(c2ccccc2)C12CCN(CC1COC(c3ccc(F)cc3)C1)CC2` (stereo not shown) [C]: the “Motor Activity” value in assay [1] was found to be 0. Further, the ED50 in assay [2] (po) turned out to be 1.4 mg/kg.
